Test results as given in patent US10314870B2, “Tropism modified cancer terminator virus (Ad.5/3 CTV;AD.5/3-CTV-M7)” (priority 2012, dated 2019).

System: GBM6 intra-cerebral tumors
Assay: Survival of mice with orthotopic GBM6 tumors after intratumoral virus infusion
Format: in vivo, athymic mice
Details: virus 1×10^8 pfu intratumoral day 7; SAHA 25 mg/kg QD PO for 5 days
Procedure: FIG. 24. SAHA enhances MDA-7/IL-24 toxicity in vivo. GBM6 cells (0.5×10^6) were implanted into the brains of athymic mice. Seven days later tumors were infused with 1×10^8 pfu of either Ad.5/3-cmv or Ad.5/3-mda-7. Twenty-four h after virus infusion animals were treated with vehicle diluent (cremophore, PO) or vorinostat (SAHA, 25 mg/kg QD, PO) for 5 days. Animal survival was monitored on a daily basis (n=2, 8 animals total).
FIG. 25A-E. Ad.5/3-PEG-E1A-mda-7 (Ad.5/3-CTV; Ad.5/3-CTV-M7) prolongs animal survival in a dose-dependent fashion and does so to a greater extent than Ad.5/3- mda-7. Panel A. GBM6-luciferase cells (0.5 ×10^6) were implanted into the brains of athymic mice. Seven days later tumors were infused with 1×10^8 pfu of either: Ad.5/3-cmv: Ad.5/3-mda-7; Ad.5/3-PEG-E1A; or Ad.5/3-PEG-E1A-mda-7 (Ad.5/3-CTV; Ad.5/3-CTV-M7). On the days indicated in the graph animals were injected with luciferin (150 mg/kg) and were imaged 15 min later following placement into an IVIS Xenogen imager. […] Animal survival was monitored on a daily basis (n=2, 6 animals total) ((a) p<0.04 greater survival than Ad.5/3-cmv; (b) p<0.0008 greater survival than Ad.5/3-cmv; (c) p<0.04 greater survival than Ad.5/3-mda-7; (d) p<0.004 greater survival than Ad.5/3-mda-7; (e) p<0.0008 greater survival than Ad.5/3-PEG-E1A-mda-7 (Ad.5/3-CTV; Ad.5/3-CTV-M7) at a dose of 3×10^8 pfu). […]

SMILES: O=C(CCCCCCC(=O)Nc1ccccc1)NO [SAHA]
- animal survival: did not significantly enhance animal survival
